Melting point data for 35 compounds are collected here from patent publication US7700637B2, “Organic compounds” (Novartis AG, priority 2003, dated 2010).

As a reminder, the melting point is the temperature of the solid-liquid transition.

The compound `Cc1oc(-c2ccc(C(F)(F)F)cc2)nc1COc1ccc(S(=O)(=O)Nc2ccccc2C(=O)O)cc1` [Compd 4-8, 2-{4-[5-Methyl-2-(4-trifluoromethyl-phenyl)-oxazol-4-ylmethoxy]-benzenesulfonylamino}-benzoic acid] came in with a melting point of 195 °C.

In turn, `CCCOc1ccc(C(=O)O)c(OCc2ccc(OCCc3nc(-c4ccccc4)oc3C)cc2)c1` [Example 15, 2-{4-[2-(5-Methyl-2-phenyl-oxazol-4-yl)-ethoxy]-benzyloxy}-4-propoxy-benzoic acid] had a melting point of 108 to 109 °C.

The compound `Cc1oc(-c2ccccc2)nc1COc1ccc(S(=O)(=O)Nc2ccc(Cl)cc2C(=O)O)cc1` [Compd 4-15, 5-Chloro-2-[4-(5-methyl-2-phenyl-oxazol-4-ylmethoxy)-benzenesulfonylamino]-benzoic acid] returned a melting point of 207 to 208 °C.

Consider `Cc1oc(-c2ccccc2)nc1CCOc1ccc(COc2cc(C(F)(F)F)cc(C(F)(F)F)c2C(=O)O)cc1` [Compd 21-4, 2-{4-[2-(5-Methyl-2-phenyl-oxazol-4-yl)-ethoxy]-benzyloxy}-4,6-bis-trifluoromethyl-benzoic acid], for which the melting point was in the range of 162 to 163 °C.

`Cc1cc(C)c(NS(=O)(=O)c2ccc(OCc3nc(-c4ccccc4)oc3C)cc2)c(C(=O)O)c1` [Compd 4-25, 3,5-Dimethyl-2-[4-(5-methyl-2-phenyl-oxazol-4-ylmethoxy)-benzenesulfonylamino]-benzoic acid] showed a melting point of 165 to 166 °C.

Compound `COc1ccc(NS(=O)(=O)c2ccc(OCCc3nc(-c4ccccc4)oc3C)cc2)c(C(=O)O)c1OC` [Compd 4-20, 2,3-Dimethoxy-6-{4-[2-(5-methyl-2-phenyl-oxazol-4-yl)-ethoxy]-benzenesulfonyl-amino}benzoic acid] returned a melting point of 59 to 60 °C.

In the case of `Cc1oc(-c2ccccc2)nc1COc1ccc(S(=O)(=O)Nc2cc3ccccc3cc2C(=O)O)cc1` [Compd 4-26, 3-[4-(5-Methyl-2-phenyl-oxazol-4-ylmethoxy)-benzenesulfonylamino]-naphthalene-2-carboxylic acid], the melting point lay within 234 to 236 °C.

`Cc1oc(-c2ccccc2)nc1COc1ccc(S(=O)(=O)Nc2cc(-c3ccccc3)ccc2C(=O)O)cc1` [Compd 4-2, 3-[4-(5-Methyl-2-phenyl-oxazol-4-ylmethoxy)-benzenesulfonylamino]-biphenyl-4-carboxylic acid] showed a melting point of 75 to 77 °C.

Take `Cc1oc(-c2ccccc2)nc1CCOc1ccc(COc2cc(Cl)ccc2C(=O)O)cc1` [Compd 21-12, 4-Chloro-2-{4-[2-(5-methyl-2-phenyl-oxazol-4-yl)-ethoxy]-benzyloxy}benzoic acid]: the melting point fell in the range of 148 to 149 °C.

On to `COc1ccc(NS(=O)(=O)c2ccc(OCc3nc(-c4ccccc4)oc3C)cc2)c(C(=O)O)c1` [Compd 4-16, 5-Methoxy-2-[4-(5-methyl-2-phenyl-oxazol-4-ylmethoxy)-benzenesulfonylamino]-benzoic acid], for which the melting point was in the range of 190 to 194 °C.

For the compound `Cc1oc(-c2ccccc2)nc1COc1ccc(S(=O)(=O)Nc2ccc(F)cc2C(=O)O)cc1` [Compd 4-14, 5-Fluoro-2-[4-(5-methyl-2-phenyl-oxazol-4-ylmethoxy)-benzenesulfonylamino]-benzoic acid], the melting point was in the range of 213 to 215 °C.

As for `Cc1oc(-c2ccccc2)nc1COc1ccc(COc2cccc(F)c2C(=O)O)cc1` [Compd 21-6, 2-Fluoro-6-[4-(5-methyl-2-phenyl-oxazol-4-ylmethoxy)-benzyloxy]-benzoic acid], the melting point fell in the range of 167 to 168 °C.

`Cc1ccc(NS(=O)(=O)c2ccc(OCc3nc(-c4ccccc4)oc3C)cc2)c(C(=O)O)c1` [Compd 4-17, 5-Methyl-2-[4-(5-methyl-2-phenyl-oxazol-4-ylmethoxy)-benzenesulfonylamino]-benzoic acid]: the melting point fell in the range of 185 to 187 °C.

`COc1cccc(OCc2ccc(OCc3nc(-c4ccccc4)oc3C)cc2)c1C(=O)O` [Compd 21-9, 2-Methoxy-6-[4-(5-methyl-2-phenyl-oxazol-4-ylmethoxy)-benzyloxy]-benzoic acid] gave a melting point of 180 to 181 °C.

As to `CC(=O)Nc1ccc(NS(=O)(=O)c2ccc(OCc3nc(-c4ccccc4)oc3C)cc2)c(C(=O)O)c1` [Compd 4-18, 5-Acetylamino-2-[4-(5-methyl-2-phenyl-oxazol-4-ylmethoxy)-benzenesulfonylamino]-benzoic acid], the melting point lay in the range of 89 to 90 °C.

With `Cc1oc(-c2ccccc2)nc1COc1ccc(S(=O)(=O)Nc2ccccc2C(=O)O)cc1` [Compd 4-11, 2-[4-(5-Methyl-2-phenyl-oxazol-4-ylmethoxy)-benzenesulfonylamino]-benzoic acid], the melting point was in the range of 195 to 198 °C.

Consider `Cc1cc(OC(C)C)cc(OCc2ccc(OCCc3nc(-c4ccccc4)oc3C)cc2)c1C(=O)O` [Compd 21-7, 4-Isopropoxy-2-methyl-6-{4-[2-(5-methyl-2-phenyl-oxazol-4-yl)-ethoxy]-benzyloxy}-benzoic acid], for which the melting point was 157 to 158 °C.

`Cc1oc(-c2ccccc2)nc1CCOc1ccc(S(=O)(=O)Nc2cc(-c3ccccc3)ccc2C(=O)O)cc1` [Compd 4-19, 3-{4-[2-(5-Methyl-2-phenyl-oxazol-4-yl)-ethoxy]-benzenesulfonylamino}-biphenyl-4-carboxylic acid] yielded a melting point of 177 to 179 °C.

Regarding `Cc1oc(-c2ccc(C(F)(F)F)cc2)nc1COc1ccc(S(=O)(=O)Nc2cc(Cl)ccc2C(=O)O)cc1` [Compd 4-3, 4-Chloro-2-{4-[5-methyl-2-(4-trifluoromethyl-phenyl)-oxazol-4-ylmethoxy]-benzene-sulfonylamino}benzoic acid], the melting point lay in the range of 191 to 193 °C.

`COc1cccc(OCc2ccc(OCCc3nc(-c4ccccc4)oc3C)cc2)c1C(=O)O` [Compd 21-10, 2-Methoxy-6-{4-[2-(5-methyl-2-phenyl-oxazolyl)-ethoxy]-benzyloxy}-benzoic acid] yielded a melting point of 183 to 184 °C.

`COc1cc(OC)c(C(=O)O)c(OCc2ccc(OCCc3nc(-c4ccccc4)oc3C)cc2)c1` [Compd 21-1, 2,4-Dimethoxy-6-{4-[2-(5-methyl-2-phenyl-oxazol-4-yl)-ethoxy]-benzyloxy}-benzoic acid] registered a melting point of 58 to 60 °C.

`Cc1oc(-c2ccccc2)nc1CCOc1ccc(COc2cc3ccccc3cc2C(=O)O)cc1` [Example 14, 3-{4-[2-(5-Methyl-2-phenyl-oxazol-4-yl)-ethoxy]-benzyloxy}-naphthalene-2-carboxylic acid]: the melting point was in the range of 135 to 137 °C.

Consider `COc1cc(OC)c(C(=O)O)c(OCc2ccc(OCc3nc(-c4ccccc4)oc3C)cc2)c1` [Compd 21-2, 2,4-Dimethoxy-6-[4-(5-methyl-2-phenyl-oxazol-4-ylmethoxy)-benzyloxy]-benzoic acid], for which the melting point lay within 182 to 183 °C.

`O=C(NCCc1ccc(F)cc1)c1ccc(S(=O)(=O)Nc2ccccc2C(=O)O)cc1` [Example 7, 2-{4-[2-(4-Fluoro-phenyl)-ethylcarbamoyl]-benzenesulfonylamino}-benzoic acid] registered a melting point of 85 to 86 °C.

Turning to `CCOc1ccc(CC(=O)Nc2ccc(S(=O)(=O)Nc3ccccc3C(=O)O)cc2)cc1` [Example 9, 2-{4-[2-(4-Ethoxy-phenyl)-acetylamino]-benzenesulfonylamino}-benzoic acid], the melting point is 241 to 242 °C.

In the case of `COc1cc(NS(=O)(=O)c2ccc(OCc3nc(-c4ccccc4)oc3C)cc2)c(C(=O)O)cc1OC` [Compd 4-24, 4,5-Dimethoxy-2-[4-(5-methyl-2-phenyl-oxazol-4-ylmethoxy)-benzenesulfonylamino]-benzoic acid], the melting point lay in the range of 206 to 207 °C.

The compound `CCCOc1cc(C)c(C(=O)O)c(OCc2ccc(OCc3nc(-c4ccccc4)oc3C)cc2)c1` [Compd 21-3, 2-Methyl-6-[4-(5-methyl-2-phenyl-oxazol-4-ylmethoxy)-benzyloxy]-4-propoxy-benzoic acid] registered a melting point of 182 to 183 °C.

Take `Cc1oc(-c2ccccc2)nc1COc1ccc(S(=O)(=O)Nc2cccc(F)c2C(=O)O)cc1` [Compd 4-4, 6-Fluoro-2-[4-(5-methyl-2-phenyl-oxazol-4-ylmethoxy)-benzenesulfonylamino]-benzoic acid]: the melting point was 203 to 205 °C.

In turn, `O=C(NCc1ccc(C(F)(F)F)cc1)c1ccc(S(=O)(=O)Nc2ccccc2C(=O)O)cc1` [Compd 6-1, 2-[4-(4-Trifluoromethyl-benzylcarbamoyl)-benzenesulfonylamino]-benzoic acid] had a melting point of 330 to 335 °C.

The compound `Cc1oc(-c2ccccc2)nc1CCOc1ccc(COc2cccc(F)c2C(=O)O)cc1` [Compd 21-8, 2-Fluoro-6-{4-[2-(5-methyl-2-phenyl-oxazol-4-yl)-ethoxy]-benzyloxy}-benzoic acid] returned a melting point of 142 to 143 °C.

For the compound `Cc1oc(-c2ccccc2)nc1COc1ccc(COc2cc(C(F)(F)F)cc(C(F)(F)F)c2C(=O)O)cc1` [Compd 21-5, 2-[4-(5-Methyl-2-phenyl-oxazol-4-ylmethoxy)-benzyloxy]-4,6-bis-trifluoromethyl-benzoic acid], the melting point is 190 to 191 °C.

Compound `COc1ccc(C(=O)O)c(OCc2ccc(OCCc3nc(-c4ccccc4)oc3C)cc2)c1` [Example 11, 4-Methoxy-2-{4-[2-(5-methyl-2-phenyl-oxazol-4-yl)-ethoxy]-benzyloxy}-benzoic acid] returned a melting point of 113 to 115 °C.

As for `Cc1oc(-c2ccccc2)nc1COc1cccc(COc2cc(Cl)ccc2C(=O)O)c1` [Example 17, 4-Chloro-2-[3-(5-methyl-2-phenyl-oxazol-4-ylmethoxy)-benzyloxy]-benzoic acid], the melting point was 168 °C.

`Cc1oc(-c2ccccc2)nc1COc1ccc(S(=O)(=O)Nc2cccc(Cl)c2C(=O)O)cc1` [Compd 4-1, 6-Chloro-2-[4-(5-methyl-2-phenyl-oxazol-4-ylmethoxy)-benzenesulfonylamino]-benzoic acid] displayed a melting point of 170 to 172 °C.

With `Cc1oc(-c2ccccc2)nc1COc1ccc(S(=O)(=O)Nc2cc(F)ccc2C(=O)O)cc1` [Compd 4-10, 4-Fluoro-2-[4-(5-methyl-2-phenyl-oxazol-4-ylmethoxy)-benzenesulfonylamino]-benzoic acid], the melting point was 212 to 214 °C.
